Source: patent publication US20130096119A1, “Isoquinolin-3-Ylurea Derivatives” (priority 2010, published 2013)
In brackets after ≈: the same amount, converted by molar mass.

Tested on: S. pneumoniae ATCC 49619
Experiment: Minimal inhibitory concentration (MIC) by microdilution method (CLSI M7-A7)
Assay type: cell-based, Streptococcus pneumoniae
Details: Streptococcus pneumoniae, ATCC49619, cation-adjusted Mueller-Hinton Broth supplemented with 3% (v/v) lysed horse blood
Experimental: Minimal inhibitory concentrations (MICs; mg/l) were determined in cation-adjusted Mueller-Hinton Broth (supplemented with 3% (v/v) lysed horse blood for testing Streptococcus pneumoniae) by a microdilution method following the description given in “Methods for Dilution Antimicrobial Susceptibility Tests for Bacteria that Grow Aerobically”, Approved standard, 7th ed., Clinical and Laboratory Standards Institute (CLSI) Document M7-A7, Wayne, Pa., USA, 2006.

| SMILES | MIC [µg/mL] |
| --- | --- |
| CCNC(=O)Nc1cc2cc(-c3cncnc3C(C)C)cc(C)c2cn1 [Example 95, 1-ethyl-3-[6-(4-isopropyl-pyrimidin-5-yl)-8-methyl-isoquinolin-3-yl]-urea] | 16 (≈ 45.8 µM) |
| CCNC(=O)Nc1cc2c(-c3cccc(CN)c3)ccc(C)c2cn1 [Example 11, 1-[5-(3-(aminomethyl)-phenyl)-8-methyl-isoquinolin-3-yl]-3-ethyl-urea] | 2 (≈ 5.98 µM) |
| CCNC(=O)Nc1cc2cc(NCc3ccc4cn[nH]c4c3)cc(C)c2cn1 [Example 184, 1-ethyl-3-{6-[(1H-indazol-6-ylmethyl)-amino]-8-methyl-isoquinolin-3-yl}-urea] | 4 (≈ 10.7 µM) |
| CCNC(=O)Nc1cc2cc(NCc3cccc(Cn4cncn4)c3)cc(C)c2cn1 [Example 188, 1-{6-[(3-((1H-1,2,4-triazol-1-yl)methyl)benzyl)amino]-8-methylisoquinolin-3-yl}-3-ethylurea] | 8 (≈ 19.3 µM) |
| CCNC(=O)Nc1cc2cccc(Nc3ccc(C(N)=O)cc3)c2cn1.Cl [Example 252, 4-[3-(3-ethyl-ureido)-isoquinolin-8-ylamino]-benzamide hydrochloride] | 2 |
| CCNC(=O)Nc1cc2c(F)c(-c3ccc(S(N)(=O)=O)cc3)cc(C)c2cn1 [Example 144, 4-[3-(3-ethyl-ureido)-5-fluoro-8-methyl-isoquinolin-6-yl]-benzenesulfonamide] | 0.5 (≈ 1.24 µM) |
| CCNC(=O)Nc1cc2c(-c3cc(C)nc(C)c3)ccc(Nc3cccnc3)c2cn1 [Example 231, 1-[5-(2,6-dimethyl-pyridin-4-yl)-8-(pyridin-3-ylamino)-isoquinolin-3-yl]-3-ethyl-urea] | 0.5 (≈ 1.21 µM) |
| CCNC(=O)Nc1cc2cccc(CNc3cccnc3)c2cn1 [Example 190, 1-ethyl-3-[8-(pyridin-3-ylaminomethyl)-isoquinolin-3-yl]-urea] | 1 (≈ 3.11 µM) |
| CCNC(=O)Nc1cc2cc(-c3cncnc3)cc(C)c2cn1 [Example 75, 1-ethyl-3-(8-methyl-6-pyrimidin-5-yl-isoquinolin-3-yl)-urea] | 4 (≈ 13 µM) |
| CCNC(=O)Nc1cc2c(F)ccc(NC(=O)c3ccccc3)c2cn1 [Example 51, N-[3-(3-ethyl-ureido)-5-fluoro-isoquinolin-8-yl]-benzamide] | 1 (≈ 2.84 µM) |
| CCNC(=O)Nc1cc2cc(-c3ccccc3C)cc(C)c2cn1 [Example 105, 1-ethyl-3-(8-methyl-6-o-tolyl-isoquinolin-3-yl)-urea] | 8 (≈ 25 µM) |
| CCNC(=O)Nc1cc2cc(NC(=O)c3cccnc3)cc(C)c2cn1 [Example 119, N-[3-(3-ethyl-ureido)-8-methyl-isoquinolin-6-yl]nicotinamide] | 0.25 (≈ 0.716 µM) |
| CCNC(=O)Nc1cc2c(-c3ccncn3)ccc(Nc3ccc(C)nc3)c2cn1 [Example 287, 1-ethyl-3-[8-(6-methyl-pyridin-3-ylamino)-5-pyrimidin-4-yl-isoquinolin-3-yl]-urea] | 0.25 (≈ 0.626 µM) |
| CCNC(=O)Nc1cc2c(-c3ccncc3)ccc(-c3ccncc3)c2cn1 [Example 72, 1-(5,8-di-pyridin-4-yl-isoquinolin-3-yl)-3-ethyl-urea] | 2 (≈ 5.41 µM) |
| CCNC(=O)Nc1cc2c(-c3ccc(S(N)(=O)=O)cc3)ccc(Nc3cccnc3)c2cn1 [Example 230, 4-[3-(3-ethyl-ureido)-8-(pyridin-3-ylamino)-isoquinolin-5-yl]-benzenesulfonamide] | 0.5 (≈ 1.08 µM) |
| CCNC(=O)Nc1cc2cc(-c3cncc(C(=O)OC)c3)cc(C)c2cn1 [Example 87, 5-[3-(3-ethyl-ureido)-8-methyl-isoquinolin-6-yl]-nicotinic acid methyl ester] | 8 (≈ 22 µM) |
| CCNC(=O)Nc1cc2cccc(Nc3ncccc3C)c2cn1.Cl [Example 167, 1-ethyl-3-[8-(3-methyl-pyridin-2-ylamino)-isoquinolin-3-yl]-urea hydrochloride] | 8 |
| CCNC(=O)Nc1cc2cccc(COc3cccc(N)c3)c2cn1.Cl [Example 260, 1-[8-(3-amino-phenoxymethyl)-isoquinolin-3-yl]-3-ethyl-urea hydrochloride] | 8 |
| CCNC(=O)Nc1cc2c(-c3ccnc(C)c3)ccc(C)c2cn1 [Example 40, 1-ethyl-3-[8-methyl-5-(2-methyl-pyridin-4-yl)-isoquinolin-3-yl]-urea] | 2 (≈ 6.24 µM) |
| CCNC(=O)Nc1cc2cc(NC(=O)c3cccc(C(=O)OC)c3)cc(C)c2cn1 [Example 194, N-[3-(3-ethyl-ureido)-8-methyl-isoquinolin-6-yl]isophthalamic acid methyl ester] | 4 (≈ 9.84 µM) |
| CCNC(=O)Nc1cc2c(-c3ccncc3)ccc(Nc3ccc(C)nc3)c2cn1 [Example 218, 1-ethyl-3-[8-(6-methyl-pyridin-3-ylamino)-5-pyridin-4-yl-isoquinolin-3-yl]-urea] | 1 (≈ 2.51 µM) |
| CCNC(=O)Nc1cc2cccc(Nc3ccc(C(=O)OC)cc3)c2cn1 [Example 179, 4-[3-(3-ethyl-ureido)-isoquinolin-8-ylamino]-benzoic acid methyl ester] | 4 (≈ 11 µM) |

| SMILES | MIC [µg/mL] |
| --- | --- |
| CCNC(=O)Nc1cc2c(-c3ccncc3)ccc(Nc3cccc(C)n3)c2cn1 [Example 219, 1-ethyl-3-[8-(6-methyl-pyridin-2-ylamino)-5-pyridin-4-yl-isoquinolin-3-yl]-urea] | 0.25 (≈ 0.627 µM) |
| CCNC(=O)Nc1cc2cc(NCc3cccc(OC)c3)cc(C)c2cn1.Cl [Example 197, 1-ethyl-3-[6-(3-methoxy-benzylamino)-8-methyl-isoquinolin-3-yl]-urea hydrochloride] | 8 |
| CCNC(=O)Nc1cc2c(F)c(NCc3ccccc3)cc(Nc3cccnc3)c2cn1 [Example 240, 1-[6-benzylamino-5-fluoro-8-(pyridin-3-ylamino)-isoquinolin-3-yl]-3-ethyl-urea] | 2 (≈ 4.65 µM) |
| CCNC(=O)Nc1cc2c(-c3cc(C)nc(C)c3)ccc(C)c2cn1 [Example 44, 1-[5-(2,6-dimethyl-pyridin-4-yl)-8-methyl-isoquinolin-3-yl]-3-ethyl-urea] | 4 (≈ 12 µM) |
| CCNC(=O)Nc1cc2cc(-c3cccc(OC)c3)cc(C)c2cn1 [Example 76, 1-ethyl-3-[6-(3-methoxy-phenyl)-8-methyl-isoquinolin-3-yl]-urea] | 1 (≈ 2.98 µM) |
| CCNC(=O)Nc1cc2c(-c3cscn3)ccc(Nc3cccc(OC)n3)c2cn1 [Example 290, 1-ethyl-3-[8-(6-methoxy-pyridin-2-ylamino)-5-thiazol-4-yl-isoquinolin-3-yl]-urea] | 0.5 (≈ 1.19 µM) |
| CCNC(=O)Nc1cc2cccc(Cn3ccnn3)c2cn1 [Example 298, 1-ethyl-3-(8-[1,2,3]triazol-1-ylmethyl-isoquinolin-3-yl)-urea] | 4 (≈ 13.5 µM) |
| CCNC(=O)Nc1cc2cccc(Nc3ccc(C(=O)OC)c(C)c3)c2cn1 [Example 266, 4-[3-(3-ethyl-ureido)-isoquinolin-8-ylamino]-2-methyl-benzoic acid methyl ester] | 4 (≈ 10.6 µM) |
| CCNC(=O)Nc1cc2cc(-c3ccc(OC)nc3)cc(C)c2cn1 [Example 89, 1-ethyl-3-[6-(6-methoxy-pyridin-3-yl)-8-methyl-isoquinolin-3-yl]-urea] | 0.5 (≈ 1.49 µM) |
| CCNC(=O)Nc1cc2cccc(Nc3ccccc3)c2cn1 [Example 169, 1-ethyl-3-(8-phenylamino-isoquinolin-3-yl)-urea] | 1 (≈ 3.26 µM) |
| CCNC(=O)Nc1cc2cccc(Nc3ccc(O)cc3)c2cn1 [Example 175, 1-ethyl-3-[8-(4-hydroxy-phenylamino)-isoquinolin-3-yl]-urea] | 16 (≈ 49.6 µM) |
| CCNC(=O)Nc1cc2cc(NC(=O)c3ccc(S(C)(=O)=O)cc3)cc(C)c2cn1 [Example 117, N-[3-(3-ethyl-ureido)-8-methyl-isoquinolin-6-yl]-4-methanesulfonyl-benzamide] | 0.25 (≈ 0.586 µM) |
| CCNC(=O)Nc1cc2c(F)c(-c3cccc(NC(C)=O)c3)cc(C)c2cn1 [Example 142, N-{3-[3-(3-ethyl-ureido)-5-fluoro-8-methyl-isoquinolin-6-yl]-phenyl}-acetamide] | 0.25 (≈ 0.657 µM) |
| CCNC(=O)Nc1cc2cccc(Nc3ccc(CC(=O)NCc4ccccc4)cc3)c2cn1.Cl [Example 208, N-benzyl-2-{4-[3-(3-ethyl-ureido)-isoquinolin-8-ylamino]-phenyl}-acetamide hydrochloride] | 8 |
| CCNC(=O)Nc1cc2cc(NCCOCc3ccccc3)cc(C)c2cn1.Cl [Example 132, 1-[6-(2-benzyloxy-ethylamino)-8-methyl-isoquinolin-3-yl]-3-ethyl-urea hydrochloride] | 8 |
| CCNC(=O)Nc1cc2cccc(Cn3ccnc3C)c2cn1 [Example 297, 1-ethyl-3-[8-(2-methyl-imidazol-1-ylmethyl)-isoquinolin-3-yl]-urea] | 4 (≈ 12.9 µM) |
| CCNC(=O)Nc1cc2c(CN3CCOCC3)ccc(Nc3cccc(OC)n3)c2cn1 [Example 275, 1-ethyl-3-{8-[(6-methoxy-pyridin-2-yl)amino]-5-(morpholin-4-ylmethyl)-isoquinolin-3-yl}-urea] | 4 (≈ 9.16 µM) |
| CCNC(=O)Nc1cc2c(-c3cn[nH]c3)ccc(C)c2cn1.Cl [Example 281, 1-ethyl-3-[8-methyl-5-(1H-pyrazol-4-yl)-isoquinolin-3-yl]urea hydrochloride] | 0.5 |
| CCNC(=O)Nc1cc2cccc(Nc3cccc(OC)c3)c2cn1 [Example 168, 1-ethyl-3-[8-(3-methoxy-phenylamino)-isoquinolin-3-yl]-urea] | 0.5 (≈ 1.49 µM) |
| CCNC(=O)Nc1cc2cc(-c3ccc(CNC(C)=O)cc3)cc(C)c2cn1 [Example 81, N-{4-[3-(3-ethyl-ureido)-8-methyl-isoquinolin-6-yl]-benzyl}-acetamide] | 0.5 (≈ 1.33 µM) |
| CCNC(=O)Nc1cc2c(CNC)ccc(Nc3cccnc3)c2cn1 [Example 270, 1-ethyl-3-{5-[(methylamino)methyl]-8-(pyridin-3-ylamino)-isoquinolin-3-yl}-urea] | 4 (≈ 11.4 µM) |
| CCNC(=O)Nc1cc2c(-c3ccc(C(=O)N(C)C)cc3)ccc(C)c2cn1 [Example 5, 4-[3-(3-ethyl-ureido)-8-methyl-isoquinolin-5-yl]-N,N-dimethyl-benzamide] | 1 (≈ 2.66 µM) |
